In patent US11672870B2, “Transduction” (The University of Nottingham, priority 2013, dated 2023):

What was measured:
NIH3t3: LSL-eGFP cells = experiment: Cre recombination assay; assay type: cell-based, mouse; details: drug pre-treatment and co-treatment (FIG. 17a-d)
NIH3t3 cells = experiment: Fluorescence delivery assay with membrane depletion, GAG competition, Heparinase, serum or Sodium Chlorate; assay type: cell-based, mouse; details: for effect on cell-surface binding and transduction of HETD proteins: free GAG competition (FIG. 3b); for inhibition of PTD-only protein transduction: free GAG competition (FIG. 12)
Excerpt: For flow cytometry, cells were trypsinized (unless otherwise stated), fixed in 4% (w/v) PFA, resuspended in PBS (pH7.5) and analysed on a MoFlo™ DP (DAKO) Flow Cytometer using a 488 nm […] laser. (50,000 cells; gated on live cells by forward/side scatter). Median fluorescence was used for statistical analyses with background from unlabelled/transduced cells subtracted and values taken as ratios to the experimental control. Data shown are three experiments of triplicate samples. For microscopy, cultures were rinsed twice with PBS and imaged with inverted fluorescence microscope (Nikon Eclipse TS100).
For testing multiple cell lines we plated 2=10^5 cells/well (in 12-well plates) onto the surface relevant to the tested cell line, attached cells for 2 hours and transduced with recombinant proteins in cell-type specific growth media. After transduction cells were washed with PBS, trypsinized and fixed in 4% PFA for flow cytometry. For membrane localization, intracellular localisation or both we plated cells as above, but cultures pre-incubated in serum-free media for 1 hour before transduction. Membrane localization to assess cell interaction was achieved by a short transduction of 1 hour in serum-free media. Intracellular localization to assess transduction efficiency was achieved by a short transduction of 1 hour followed by 5 hour incubation in serum-free media only. Cell association (membrane and intracellular levels) were assessed by transducing cells for 6 hours in serum-free medium. For flow cytometry cells were trypsinized, washed and fixed in 4% PFA and for microscopy cells were imaged live after washing in PBS. For trypsin depletion of cell-surface proteins, cells were treated with trypsin/EDTA (Invitrogen) or EDTA-based cell dissociation solution (CDS) (Sigma) for 15 minutes at 37° C., followed by washes with PBS and 1× soybean trypsin inhibitor (10 mg/ml in PBS; Sigma). Cells were then treated with proteins for 1 hour at 37° C. in serum-free medium. For detergent depletion of cell membranes, cells were treated with PBS (pH7.5) containing 0.1% (v/v) Triton-X100 (Tx100) for 10 minutes at 37° C., followed by washes with PBS. Cells were then treated with proteins for 1 hour at 37° C. in serum-free medium. For GAG-treatment cells were pre-treated with GAGs in DMEM without serum before transduction and were included in the transduction media. This included heparin and chondroitin sulphate A, B and C (0-50 μg/ml).
For Heparin binding activity we incubated 1 ml of recombinant proteins (20 μg/ml) in DMEM with 50 μl of PBS-washed Heparin-sepharose beads (Sigma) for 1 hour at 37° C. shaking at 100 rpm. Media pre- and post-incubation was compared by fluorometry. For Heparinase treatment, we plated NIH3t3 cells at 2×10^5/well (in 12-well plates) and were pre-incubated in serum-free media for 1 hour with Heparinase III (0-1 U/ml) or Heparin (0-50 μg/ml). Cells were then washed and transduced with mR or P21-mR-8R (20 μg/ml in serum-free media or media with different FCS concentrations) containing Heparinase III or Heparin for 12 hours. FCS was depleted of P21-binding material by affinity chromatography. This was achieved by incubating 50 ml FCS with 2 ml Glutathione-Sepharose resin (GE Healthcare) pre-absorbed with GST-P21 protein expressed in Escherichia coli.

NIH 3t3 fibroblast cells = experiment: Iron oxide nanoparticle uptake (Prussian blue, iron assay); assay type: cell-based
Description: Confluent cells were split into 12 well plates at 200,000 cells/well and incubated for 24 hours at 37° C. After 24 hours 50 μg of Nanomag-D iron oxide nanoparticles (250 nm) and either 0, 0.01, 0.05, 0.1, 0.5, 2, 1, 5 and 10 μM of cell penetrating peptide were added to the cells with either 10% FCS DMEM or serum free DMEM media and left for 24 hours for iron nanoparticles to be internalised. After incubation cells were washed in PBS to remove excess nanoparticles then harvested for qualitative Prussian blue staining, quantitative colorimetric iron assay or fluorescence activated flow cytometry.
Cells were labelled then fixed in 4% (w/v) PFA for 15-20 minutes at 4° C. A staining solution of 2.5% potassium ferrocyanide in 2.5% HCL was added to cells and incubated for an hour at room temperature. If nanoparticles were present a blue stain appeared which is proportional to the concentration of iron.
Quantitative Colorimetric Iron Assay Cells were labelled, trypsinised and pelleted then all media removed. 40 μl of 37% HCL was added to the cells and heated at 70° C. until dissolved, then neutralised with 50 μl of NaOH. Those samples containing a high concentration of iron were diluted 1:10 then 40 μl of Quantichrom working reagent was added and the instructions in the Quantichrom iron assay followed.

Molecule: C[C@@H]1[C@H](O)[C@@H](C)/C=C/C=C/CC/C=C/C=C/C=C/C=C/C(O[C@H]2O[C@H](C)[C@@H](O)[C@H](N)[C@@H]2O)CC2O[C@](O)(CC(O)C(O)CCC(O)CC(O)CC(O)CC(=O)O[C@H]1C)CC(O)C2C(=O)O (stereo partly drawn) [nystatin]
- effect on functional delivery of HETD-tagged Cre (NIH3t3: LSL-eGFP cells): dose-dependent inhibition

Molecule: C=C1[C@@H](C)[C@H]2[C@H](Cc3ccccc3)NC(=O)[C@]23[C@H](OC(C)=O)/C=C/[C@@](C)(O)C(=O)[C@@H](C)C/C=C/[C@H]3[C@@H]1O [Cytochalasin D]
- effect on functional delivery of HETD-tagged Cre (NIH3t3: LSL-eGFP cells): dose-dependent reduction

Molecule: N=C(N)NC(=O)c1nc(Cl)c(N)nc1N [Amiloride]
- effect on functional delivery of HETD-tagged Cre (NIH3t3: LSL-eGFP cells): dose-dependent reduction

Molecule: Chondroitin sulphate [CS-B]
- effect on cell-surface binding and transduction of HETD proteins (NIH3t3 cells): little effect
- inhibition of PTD-only protein transduction (NIH3t3 cells): 2.4 fold

Molecule: Chondroitin sulphate [CS-C]
- effect on cell-surface binding and transduction of HETD proteins (NIH3t3 cells): little effect
- inhibition of PTD-only protein transduction (NIH3t3 cells): 4.1 fold

Molecule: dextran
- decrease in nanoparticle uptake (NIH 3t3 fibroblast cells; increasing concentration added to media, 1 μM P218R): 18%

Molecule: Methyl-β-cyclodextrin [methyl-b-cyclodextrin]
- effect on functional delivery of HETD-tagged Cre (NIH3t3: LSL-eGFP cells): dose-dependent inhibition

Molecule: Heparin
- inhibition of PTD-only protein transduction (NIH3t3 cells): 8.1 fold
- inhibition of transduction of HETD proteins (NIH3t3 cells; free GAG in media, P21-mR-8R 20 μg/ml (FIG. 3)): 99.8±2.1%
- effect on P21 binding and nanoparticle uptake (NIH 3t3 fibroblast cells; added to media): inhibitor for the binding

Molecule: [Na+].[O-][Cl+2]([O-])[O-] [Sodium Chlorate]
- prevention of HETD-mediated protein delivery (NIH3t3 cells; inhibitor of HS synthesis (FIG. 14)): ~7.6 fold

Molecule: Chondroitin sulphate [CS-A]
- effect on cell-surface binding and transduction of HETD proteins (NIH3t3 cells): little effect

B1: heparinase III: HS-lyase enzyme (protein, UniProt Q59289 25-659, looked up)
Heparin-sulfate lyase: QSSSITRKDFDHINLEYSGLEKVNKAVAAGNYDDAAKALLAYYREKSKAREPDFSNAEKPADIRQPIDKVTREMADKALVHQFQPHKGYGYFDYGKDINWQMWPVKDNEVRWQLHRVKWWQAMALVYHATGDEKYAREWVYQYSDWARKNPLGLSQDNDKFVWRPLEVSDRVQSLPPTFSLFVNSPAFTPAFLMEFLNSYHQQADYLSTHYAEQGNHRLFEAQRNLFAGVSFPEFKDSPRWRQTGISVLNTEIKKQVYADGMQFELSPIYHVAAIDIFLKAYGSAKRVNLEKEFPQSYVQTVENMIMALISISLPDYNTPMFGDSWITDKNFRMAQFASWARVFPANQAIKYFATDGKQGKAPNFLSKALSNAGFYTFRSGWDKNATVMVLKASPPGEFHAQPDNGTFELFIKGRNFTPDAGVFVYSGDEAIMKLRNWYRQTRIHSTLTLDNQNMVITKARQNKWETGNNLDVLTYTNPSYPNLDHQRSVLFINKKYFLVIDRAIGEATGNLGVHWQLKEDSNPVFDKTKNRVYTTYRDGNNLMIQSLNADRTSLNEEEGKVSYVYNKELKRPAFVFEKPKKNAGTQNFVSIVYPYDGQKAPEISIRENKGNDFEKGKLNLTLTINGKQQLVLVP
- inhibition of GET/HETD-mediated transduction (NIH3t3 cells; at 1 U/ml, 6 h protocol): 97.2±3.4%
